Laboratory results published in PubChem BioAssay AID1918930 (Molecular Pharmacology Branch, DTP, NCI, 2023).
“And” between values parts separate entries of the source, which are not always exact repeats. Equal values may be shown once.

Tested on: 233499-124-R-J3-PDC complex spheroid viability, % test/control
Assay: Anticancer human tumor 233499-124-R-J3-PDC patient-derived colon adenocarcinoma cell line growth inhibition
Details: for viability, T/C: stronger effect = lower value
Method in brief: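 Multicellular complex spheroids of tumor cells with human endothelial cells (HUVEC) and mesenchymal stem cells; the LSD1 inhibitor iadademstat was combined with standard-of-care or investigational agents. Top concentration at or near clinical Cmax, half-log dilutions; final DMSO ≤0.25%.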

[1] = curve of first compound, second compound 0.1 µM
[2] = curve of first compound, second compound 0.316 µM
[3] = curve of first compound, second compound 1 µM
[4] = curve of first compound, second compound 3.16 µM
[5] = curve of first compound, second compound 10 µM
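Note: spheroids exposed to agents for one week before readout.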

SMILES: CCc1c2c(nc3ccc(O)cc13)-c1cc3c(c(=O)n1C2)COC(=O)[C@]3(O)CC + NC1CC1c1ccc(-c2cccc(O)c2)cc1
- IC50 [1]: 25.6 nM
- IC50 [2]: 22.6 nM
- IC50 [3]: 24.5 nM
- IC50 [4]: 27.6 nM
- IC50 [5]: 50.3 nM
- viability, T/C (second compound 0.1 µM, first compound 0.000949 µM): 88%
- viability, T/C (second compound 0.1 µM, first compound 0.003 µM): 122%
- viability, T/C (second compound 0.1 µM, first compound 0.00949 µM): 90.8%
- viability, T/C (second compound 0.1 µM, first compound 0.03 µM): 44.2%
- viability, T/C (second compound 0.1 µM, first compound 0.0949 µM): 27.7%
- viability, T/C (second compound 0.1 µM, first compound 0.3 µM): 29.5%
- viability, T/C (second compound 0.316 µM, first compound 0.000949 µM): 103%
- viability, T/C (second compound 0.316 µM, first compound 0.003 µM): 112%
- viability, T/C (second compound 0.316 µM, first compound 0.00949 µM): 88.1%
- viability, T/C (second compound 0.316 µM, first compound 0.03 µM): 38.3%
- viability, T/C (second compound 0.316 µM, first compound 0.0949 µM): 25.2%
- viability, T/C (second compound 0.316 µM, first compound 0.3 µM): 30.3%
- viability, T/C (second compound 1 µM, first compound 0.000949 µM): 70.4%
- viability, T/C (second compound 1 µM, first compound 0.003 µM): 112%
- viability, T/C (second compound 1 µM, first compound 0.00949 µM): 101%
- viability, T/C (second compound 1 µM, first compound 0.03 µM): 40.6%
- viability, T/C (second compound 1 µM, first compound 0.0949 µM): 19.6%
- viability, T/C (second compound 1 µM, first compound 0.3 µM): 30.4%
- viability, T/C (second compound 3.16 µM, first compound 0.000949 µM): 77.6%
- viability, T/C (second compound 3.16 µM, first compound 0.003 µM): 109%
- viability, T/C (second compound 3.16 µM, first compound 0.00949 µM): 98.6%
- viability, T/C (second compound 3.16 µM, first compound 0.03 µM): 46.4%
- viability, T/C (second compound 3.16 µM, first compound 0.0949 µM): 31.5%
- viability, T/C (second compound 3.16 µM, first compound 0.3 µM): 24.6%
- viability, T/C (second compound 10 µM, first compound 0.000949 µM): 65.1%
- viability, T/C (second compound 10 µM, first compound 0.003 µM): 88.5%
- viability, T/C (second compound 10 µM, first compound 0.00949 µM): 105%
- viability, T/C (second compound 10 µM, first compound 0.03 µM): 59.7%
- viability, T/C (second compound 10 µM, first compound 0.0949 µM): 43.8%
- viability, T/C (second compound 10 µM, first compound 0.3 µM): 32.4%

SMILES: CC1COCCN1c1cc(C2(S(C)(=N)=O)CC2)nc(-c2ccnc3[nH]ccc23)n1 (stereo unspecified)
- viability, T/C (compound 0.0316 µM): 86% and 97.4%
- viability, T/C (compound 0.1 µM): 92.5% and 98.9%
- viability, T/C (compound 0.316 µM): 75.2% and 90.7%
- viability, T/C (compound 1 µM): 65.8% and 86.7%
- viability, T/C (compound 3.16 µM): 49.3% and 53.9%
- viability, T/C (compound 10 µM): 63.4% and 54.3%
- IC50 (curve of compound): > 10000 nM

SMILES: CC(C)c1c(-c2ccccc2)nc2c(C#N)c[nH]n2c1=O + NC1CCC(NC2CC2c2ccccc2)CC1
- IC50 [1]: > 10000 nM
- IC50 [2]: > 10000 nM
- IC50 [3]: > 10000 nM
- IC50 [4]: > 10000 nM
- IC50 [5]: > 10000 nM
- viability, T/C (second compound 0.1 µM, first compound 0.0316 µM): 119%
- viability, T/C (second compound 0.1 µM, first compound 0.1 µM): 98.5%
- viability, T/C (second compound 0.1 µM, first compound 0.316 µM): 99.8%
- viability, T/C (second compound 0.1 µM, first compound 1 µM): 102%
- viability, T/C (second compound 0.1 µM, first compound 3.16 µM): 118%
- viability, T/C (second compound 0.1 µM, first compound 10 µM): 120%
- viability, T/C (second compound 0.316 µM, first compound 0.0316 µM): 93.6%
- viability, T/C (second compound 0.316 µM, first compound 0.1 µM): 110%
- viability, T/C (second compound 0.316 µM, first compound 0.316 µM): 97.3%
- viability, T/C (second compound 0.316 µM, first compound 1 µM): 107%
- viability, T/C (second compound 0.316 µM, first compound 3.16 µM): 118%
- viability, T/C (second compound 0.316 µM, first compound 10 µM): 115%
- viability, T/C (second compound 1 µM, first compound 0.0316 µM): 83.7%
- viability, T/C (second compound 1 µM, first compound 0.1 µM): 104%
- viability, T/C (second compound 1 µM, first compound 0.316 µM): 90%
- viability, T/C (second compound 1 µM, first compound 1 µM): 101%
- viability, T/C (second compound 1 µM, first compound 3.16 µM): 100%
- viability, T/C (second compound 1 µM, first compound 10 µM): 101%
- viability, T/C (second compound 3.16 µM, first compound 0.0316 µM): 89.1%
- viability, T/C (second compound 3.16 µM, first compound 0.1 µM): 85.9%
- viability, T/C (second compound 3.16 µM, first compound 0.316 µM): 96.8%
- viability, T/C (second compound 3.16 µM, first compound 1 µM): 85.6%
- viability, T/C (second compound 3.16 µM, first compound 3.16 µM): 103%
- viability, T/C (second compound 3.16 µM, first compound 10 µM): 104%
- viability, T/C (second compound 10 µM, first compound 0.0316 µM): 83.7%
- viability, T/C (second compound 10 µM, first compound 0.1 µM): 84.8%
- viability, T/C (second compound 10 µM, first compound 0.316 µM): 86.2%
- viability, T/C (second compound 10 µM, first compound 1 µM): 83.6%
- viability, T/C (second compound 10 µM, first compound 3.16 µM): 85.9%
- viability, T/C (second compound 10 µM, first compound 10 µM): 74.2%

SMILES: Nc1ncn(C2CC(O)C(CO)S2)c(=O)n1 (stereo unspecified)
- viability, T/C (compound 0.000949 µM): 92.5% and 83.6%
- viability, T/C (compound 0.003 µM): 96% and 87.5%
- viability, T/C (compound 0.00949 µM): 119% and 95.5%
- viability, T/C (compound 0.03 µM): 100% and 94%
- viability, T/C (compound 0.0949 µM): 59.1% and 62.5%
- viability, T/C (compound 0.3 µM): 28.4% and 35%
- IC50 (curve of compound): 133 nM and 160 nM

SMILES: COc1ccc([C@@H](O)c2cc(-c3ncnc4cc(N5CCOCC5)ccc34)c(F)cc2Cl)nn1
- viability, T/C (compound 0.0316 µM): 81.5% and 87.1%
- viability, T/C (compound 0.1 µM): 76.2% and 85.3%
- viability, T/C (compound 0.316 µM): 77% and 72.1%
- viability, T/C (compound 1 µM): 82.3% and 74.6%
- viability, T/C (compound 3.16 µM): 61.9% and 68.9%
- viability, T/C (compound 10 µM): 12.8% and 35.8%
- IC50 (curve of compound): 4170 nM and 5860 nM
